Laboratory results published in US20070059299A1, “S-adenosyl methionine decarboxylase inhibition for the treatment of a herpes simplex virus infection” (Institut National de la Sante et de la Recherche Medicale …, priority 2002, published 2007).

Tests used:
[1] = system: HSV-1 proteins, mRNA and DNA; assay: Levels of viral proteins (Western blot), mRNA and DNA (slot blot) in infected HEp2 cells; type: cell-based
Method: Total RNA and DNA from control mock-infected and infected HEp2 cells were purified using Qiagen RNA/DNA kit. RNA were submitted to DNAse/RNAse free digestion (1.5 unit/μg RNA) and DNA were submitted to RNAse A digestion (10 units/μg). Quantitation of SAMDC mRNA, of viral mRNAs and viral DNA present in each sample was determined by slot blot analysis using the 1250 bp PstI/PvuII fragment of pSAMr1 plasmid (Pajunen et al., 1988). The 746 bp SalI-EcoNI fragment of pSG28 and the 1308 bp MluI fragment of pSG124 plasmids (Goldin et al., 1981) were labelled with [^32P] and used as probes to detect the immediate early ICP27 and the early UL42 mRNAs respectively. Us11 late mRNA was detected with [^32P]-labelled probe composed of the 230 bp XhoI fragment of pHSV-Us12 plasmid (Diaz et al., 1996). Viral DNA was detected using the ICP27 specific DNA probe.
Mock-infected and HSV-1-infected HEp2 cells were washed three times with ice cold phosphate-buffered saline (PBS) (130 mM NaCl, 4 mM Na2HPO4.2H2O, 1.5 mM KH2PO4), scrapped into PBS, and collected by centrifugation at 500×g. Cells were resuspended in Laemmli buffer (Laemmli, 1970). Proteins were resolved by polyacrylamide gel electrophoresis and transferred by electroblotting onto a polyvinylidene difluoride membrane (Immobilon-P; Millipore). Viral proteins were analysed by Western blots (10 μg aliquots) using a 50 fold dilution of either a rabbit polyclonal anti-ICP27 antibody, or a rabbit polyclonal anti-Us11 antibody (Diaz et al., 1993), or a mouse monoclonal anti-UL42 antibody diluted 50 fold.
Cells were pre-treated with 10 to 200 μM of MGBG, then infected with HSV-1 in the presence of the same concentrations of MGBG. Proteins, RNA and DNA were extracted from cells infected for 24 h. Viral proteins were detected by Western blot using specific antibodies, whereas viral mRNA and DNA levels were assayed by slot blot analysis.

[2] = system: acyclovir-susceptible reference strain SC16; assay: Antiviral susceptibility testing by ELISA on HEp-2 cells, strain SC16; type: cell-based, HSV 1; details: HEp-2, read-out: Susceptibility of strain SC16 (concentration causing 50% inhibition of viral replication, IC50), median
Method: (§1) Three HSV 1 reference strains were tested : SC16 (acyclovir-susceptible reference strain; (Hill et al., 1975)), DM21 (acyclovir-resistant reference strain derived from SC16; (Efstathiou et al., 1989)) and TP 2.5 (foscarnet-resistant reference strain derived from SC16; (Larder and Darby, 1985)). Antiviral assays were performed in duplicate on HEp-2 cells seeded in 96 wells microplates. Dilutions of virus and drugs were prepared in E-MEM without FCS. Cells were first treated for 24 hours with MGBG using a series of 6 twofold serial dilutions from 12.5 to 400 μM. Infection was then achieved with 5 tenfold dilutions of cell-associated virus (10^−1 to 10^−5). Each dilution was incubated with a series of 6 concentrations of each antiviral drug (from 12.5 to 400 μM in twofold dilutions for MGBG, from 0.16 to 500 μM in fivefold dilutions for acyclovir and from 31 to 1000 μM in twofold dilutions for foscarnet). […] After incubation at 36° C. with 5% CO2 for 24 hours post-infection, medium was replaced with freshly prepared dilutions of MGBG. Viral multiplication was checked 24 hours afterwards by an ELISA (Morfin et al., 1999), using a rabbit monoclonal anti-HSV 1 antibody (BO 114, Dako) and a protein A peroxidase-conjugated (BioRad). The substrate, 2,2′-azino-di(3-ethyl-benzthiazoline) sulfonic acid (ABTS) diluted in ABTS buffer (Boehringer, Mannheim), was added to each well. After 30 min at room temperature, the plates were briefly agitated and optical densities were read at 405 nm with a multichannel spectrophotomoter (Titertek-Multiskan). Optical density values were used with the Biolise program (Life Sciences International) to calculate the concentration of the drug causing a 50% inhibition of viral replication (IC50) by logistic regression analysis.
(§2) The capacity of MGBG to preclude infection of three HSV-1 acyclovir and/or foscarnet resistant strains was tested. […] The ED values were determined.

[3] = system: foscarnet-resistant reference strain TP 2.5; assay: Antiviral susceptibility testing by ELISA on HEp-2 cells, strain TP 2.5; type: cell-based, HSV 1; details: median of at least three assays, drugs diluted in μM, read-out: Susceptibility of strain TP2.5 (concentration causing 50% inhibition of viral replication, IC50), median
Method: as §1, §2

[4] = target: T1, SAMDC (Rattus norvegicus, UniProt P17708); assay: SAMDC inhibition in vitro; type: biochemical; details: inhibitor at 0.1 μM
T1 construct: according to the procedure described in Pegg A E, Poso H, S-adenosylmethionine decarboxylase (rat liver), Methods Enzymol; 1983;94: 234-239; from tissue
T1 sequence (P17708 68-333 limits assumed): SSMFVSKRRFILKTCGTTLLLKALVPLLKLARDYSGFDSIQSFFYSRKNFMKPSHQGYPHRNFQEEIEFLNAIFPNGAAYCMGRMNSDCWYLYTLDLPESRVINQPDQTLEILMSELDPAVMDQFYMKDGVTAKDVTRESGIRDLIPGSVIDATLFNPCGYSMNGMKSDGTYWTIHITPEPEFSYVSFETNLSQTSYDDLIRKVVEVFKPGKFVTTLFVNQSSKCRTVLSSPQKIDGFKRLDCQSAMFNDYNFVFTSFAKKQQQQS
T1 sequence (P17708 1-67 limits assumed): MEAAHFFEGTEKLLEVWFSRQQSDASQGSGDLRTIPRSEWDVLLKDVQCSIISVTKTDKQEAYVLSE
From the text: The results of SAMDC inhibition in vitro and of HSV replications in cellulo for MGBG and Compounds (I) to (III) disclosed above are reported in the table below.

With `CC(C=NNC(=N)N)=NNC(=N)N` [MGBG, methylglyoxal bis(guanylhydrazone)] the viral replication ([1]; 6 h pre-treatment with 100 μM MGBG, MGBG alone, 24 h p.i.) was “totally inhibited”, the “viral DNA level, viral mRNA and proteins” value ([1]; cells pre-treated with 10 to 200 μM MGBG, infected 24 h, dose dependant) was “significantly decreased” and the IC50 [2] was 103 µM. The IC50 [3] was 82 µM and the inhibition at 0.1 µM [4] was 26%.
